Measured values: patent US20230346770A1 (priority 2020, published 2023)
Values after ≈ are worked out from the molar mass of the structure shown. Where two headings read alike, the source gives them in different places.

Tests used:
[1] = Phase 1 crossover drug-drug interaction study, plasma pharmacokinetics in healthy adults; conditions: for time of peak of mean plasma concentration / pre-dose mean plasma concentration: Treatment B; for time of peak of mean plasma concentration: Day 5, in combination with bedaquiline; for pre-dose mean plasma concentration: Day 5 morning
M. bovis = conditions: n=1; cited from earlier work
M. smegmatis = conditions: n=7; cited from earlier work
[2] = in vivo; cited from earlier work
[3] = updated model from the present study; clarithromycin coadministration
M. marinum = conditions: n=1; cited from earlier work
clinical = conditions: human, in vivo
M. abscessus = conditions: cited from earlier work
[4] = human; cited from earlier work
M. fortuitum = conditions: n=5; cited from earlier work
M. kansasii = conditions: n=1; cited from earlier work
[5] = in vivo; cited from earlier work; remark: listed apart in the source
[6] = test system: M. avium/M. intracellulare (MAC); conditions: n=7; cited from earlier work
[7] = human, in vivo
[8] = test system: other mycobacterial species; conditions: generally, other mycobacterial species incl. M. avium, M. abscessus, M. fortuitum, M. marinum; cited from earlier work
M. ulcerans = conditions: cited from earlier work
[9] = 8-week bedaquiline regimen in MDR-TB patients, Diacon et al. 2012; cited from earlier work
[10] = Treatment B Day 5: bedaquiline 100 mg + clarithromycin 500 mg every 12 hours, n=16

CO[C@]1(C)C[C@@H](C)C(=O)[C@H](C)[C@@H](O)[C@](C)(O)[C@@H](C(C)O)OC(=O)[C@H](C)[C@@H](O[C@H]2C[C@@](C)(OC)[C@@H](O)[C@H](C)O2)[C@H](C)[C@H]1O[C@@H]1O[C@H](C)C[C@H](N(C)C)[C@H]1O (stereo partly drawn) [14-OH-Clarithromycin, 14-OH-clarithromycin]
AUC12 h (mean) [1, 10]: 10849 ng·h/mL | Cmax (mean) [1, 10]: 1,152 ng/mL | Cmin (mean) [1, 10]: 636 ng/mL | tmax (median) [1, 10]: 2.00 h | time of peak of mean plasma concentration [1]: 3 hours post-dose | pre-dose mean plasma concentration [1]: 797 ng/mL

COc1nc2ccc(Br)cc2cc1[C@@H](c1ccccc1)[C@@](O)(CCN(C)C)c1cccc2ccccc12 [Bedaquiline, (1R,2S)-1-(6-bromo-2-methoxyquinolin-3-yl)-4-(dimethylamino)-2-naphthalen-1-yl-1-phenylbutan-2-ol]
Bedaquiline MIC Median (M. bovis): 3 ng/mL | Bedaquiline MIC Median (M. smegmatis): 7 ng/mL | Bedaquiline MIC range (M. smegmatis): 3 to 100 ng/mL | improvement of bioavailability when administered with food [2]: approximately 2 fold | Effect CLR on CL/F, Estimate (RSE, %) [3]: −0.37 (11) | Bedaquiline MIC Median (M. marinum): 3 ng/mL | Cmax (clinical; 100 mg, Cmax (mean)): 1390 ng/mL | AUC(0-t) (clinical; AUC72 h (mean)): 13900 ng·h/mL | AUC(0-t) (clinical; AUC240 h (mean)): 17600 ng·h/mL | Tmax (clinical; tmax (median)): 5 h | MIC (M. abscessus; 1 isolate of M. abscessus): 250 ng/mL (≈ 0.45 µM) | Bedaquiline MIC Median (M. abscessus; n=1): 250 ng/mL | Increase in CL for healthy volunteers or C202, Estimate [4]: 37.5% | Bedaquiline MIC Median (M. fortuitum): 10 ng/mL | Bedaquiline MIC range (M. fortuitum): 7 to 10 ng/mL | Bedaquiline MIC Median (M. kansasii): 3 ng/mL | terminal elimination half-life [5]: 5.5 months | time within which Cmax was reached after drug administration [5]: 4 to 6 h | Bedaquiline MIC Median [6]: 10 ng/mL | Bedaquiline MIC range [6]: 7 to 10 ng/mL | AUC72h higher in Period 2 compared with Period 1 [7]: 5-6% | AUC240h higher in Period 2 compared with Period 1 [7]: 8-18% | increase of AUC72h with clarithromycin co-administration [7]: 12% | increase of AUC240h (mean plasma exposure) with clarithromycin co-administration [7]: 14% | plasma concentration quantifiable until [7]: 240 hours post-dose | tmax (median) [7]: 3.48 h | Cmax (mean) ([7]; 100 mg): 1287 ng/mL | MICs [8]: < 0.1 µg/mL | MIC (M. ulcerans; 1 isolate of M ulcerans): 500 ng/mL (≈ 0.9 µM) | Bedaquiline MIC Median (M. ulcerans; n=1): 500 ng/mL

CC[C@H]1OC(=O)[C@H](C)[C@@H](O[C@H]2C[C@@](C)(OC)[C@@H](O)[C@H](C)O2)[C@H](C)[C@@H](O[C@@H]2O[C@H](C)C[C@H](N(C)C)[C@H]2O)[C@](C)(OC)C[C@@H](C)C(=O)[C@H](C)[C@@H](O)[C@]1(C)O [Clarithromycin, clarithromycin, reference compound]
time of peak of mean plasma concentration [1]: 3 hours post-dose | pre-dose mean plasma concentration [1]: 1,281 ng/mL | AUC(0-t) ([1]; human, plasma, oral, AUC12 h (mean), Treatment B Day 5: bedaquiline 100 mg + clarithromycin 500 mg every 12 hours, n=16): 22900 ng·h/mL | Cmax ([1]; human, plasma, oral, Cmax (mean), Treatment B Day 5: bedaquiline 100 mg + clarithromycin 500 mg every 12 hours, n=16): 2970 ng/mL | Tmax ([1]; human, plasma, oral, tmax (median), Treatment B Day 5: bedaquiline 100 mg + clarithromycin 500 mg every 12 hours, n=16): 3 h

CNCC[C@@](O)(c1cccc2ccccc12)[C@H](c1ccccc1)c1cc2cc(Br)ccc2nc1OC [M2]
mean terminal elimination half-life [9]: 159 days
